Our source for the IC50 values is US5519163A, “Inhibitors of phosphoinositide-specific phospholipase C” (Merck & Co., Inc., priority 1993, dated 1996).

Where only a bound is given, the exact number is not on record here.

In one assay the target is T1, PLCγ1 (Rattus norvegicus, UniProt P10686).
T1 construct: made in house; host or cells: E. coli BL21 (DE3), plasmid pT5T-PLC4 (ATCC 69421)
T1 sequence (P10686 with tags, fused parts or gaps): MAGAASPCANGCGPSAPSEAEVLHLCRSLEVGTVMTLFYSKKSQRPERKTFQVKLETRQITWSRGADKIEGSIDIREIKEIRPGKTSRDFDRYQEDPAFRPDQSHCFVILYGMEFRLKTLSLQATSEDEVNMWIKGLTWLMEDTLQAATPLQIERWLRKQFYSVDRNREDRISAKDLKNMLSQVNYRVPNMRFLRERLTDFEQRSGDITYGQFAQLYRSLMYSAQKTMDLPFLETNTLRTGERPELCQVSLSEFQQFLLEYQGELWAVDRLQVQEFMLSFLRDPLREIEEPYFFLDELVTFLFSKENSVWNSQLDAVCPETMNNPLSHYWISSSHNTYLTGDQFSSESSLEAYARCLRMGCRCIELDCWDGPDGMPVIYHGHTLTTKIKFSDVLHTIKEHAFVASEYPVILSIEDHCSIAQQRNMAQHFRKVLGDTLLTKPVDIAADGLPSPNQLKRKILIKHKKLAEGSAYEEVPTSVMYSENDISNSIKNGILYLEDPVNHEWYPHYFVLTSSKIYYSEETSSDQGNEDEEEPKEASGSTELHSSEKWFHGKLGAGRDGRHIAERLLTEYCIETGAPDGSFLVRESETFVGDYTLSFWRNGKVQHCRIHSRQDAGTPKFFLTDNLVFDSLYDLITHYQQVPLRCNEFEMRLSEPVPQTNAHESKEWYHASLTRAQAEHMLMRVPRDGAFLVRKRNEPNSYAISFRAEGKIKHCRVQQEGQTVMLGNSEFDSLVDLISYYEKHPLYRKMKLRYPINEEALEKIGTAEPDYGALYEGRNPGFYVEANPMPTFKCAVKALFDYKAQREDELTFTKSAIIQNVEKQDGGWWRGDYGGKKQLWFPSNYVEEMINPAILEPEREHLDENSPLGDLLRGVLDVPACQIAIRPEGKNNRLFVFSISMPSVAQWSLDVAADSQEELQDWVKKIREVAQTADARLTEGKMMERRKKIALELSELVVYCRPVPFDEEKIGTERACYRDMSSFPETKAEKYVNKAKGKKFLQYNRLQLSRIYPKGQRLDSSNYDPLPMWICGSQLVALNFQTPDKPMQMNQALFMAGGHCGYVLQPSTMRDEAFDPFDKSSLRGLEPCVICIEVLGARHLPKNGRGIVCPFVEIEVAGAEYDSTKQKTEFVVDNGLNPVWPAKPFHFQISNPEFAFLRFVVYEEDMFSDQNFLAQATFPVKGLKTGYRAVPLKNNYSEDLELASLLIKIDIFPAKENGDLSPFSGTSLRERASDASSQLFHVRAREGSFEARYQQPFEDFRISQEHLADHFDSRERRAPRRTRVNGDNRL
Description: Inhibition of purified recombinant PLCγ1 ([3H]-phosphatidyl inositol hydrolysis). The note with it: PLCγ1, 30° C., phosphatidyl inositol substrate; Tables 1 and 2. The format is biochemical. From the text: Subcloning of the PLCγ Coding Sequence. Rat brain cDNA is synthesized using rat brain poly(A)RNA as template by literature protocol (Sanbrook, J. et al., Molecular Cloning: A Laboratry Manual, Cold Spring Harbor Laboratory Press, Cold Spring Harbor, N.Y.). From the published cDNA sequence of rat brain PLCγ1 (Suh, P.-G., Ryu, S. H., Moon, K. H., Suh, H. W., & Rhee, S. G. (1988) Proc. Natl. Acad. Sci. USA 85, 5419-5423), PCR primers, one which contains a BamHI restriction site upstream of the sequence complementary to the 5' end of the PLCγ1 gene (primer 01), and the other one which contains a HindIII site downsteam of the 3' end of the PLCγ gene (primer 04), were synthesized. Carrying out the PCR using these primers (01 and 04) with the above mentioned rat brain cDNA as template, a DNA fragment with the entire rat brain PLCγ1 coding sequence, flanked by a 5' BamHI site and a 3' HindIII site, is generated. This BamHI-HindIII fragment containing the coding sequence of PLCγ was subcloned into pBSII(S/K)+, generating pPLC1. The rest of the manipulations were accomplished using PCR to generate the appropriate DNA fragment. […]
Regarding `O=P(O)(O)C(O)c1ccc(Oc2ccccc2)cc1` (stereo not shown) [reference compound], the concentration for half-maximal inhibition (IC50) was over 300 µM.

The test system of another assay is PLCβ. In words: Inhibition of PLCβ purified from bovine brain (assay mixture as in Example 12). Format: biochemical. The note with it: PLCβ from bovine brain substituted for PLCγ; Tables 3 and 4. The protocol:
Assay of purified PLCγ1 activitiy. Activity of the purified PLCγ1 was assayed at 30° C. Reactions were never allowed to proceed to more than 10% completion based on the limiting substrate. A typical reaction contained the following: 50 mM HEPES pH7.5, 0.1% Deoxycholate, 3 mM CaCl2, 1 mM EGTA, 0.1 mM DTT with phosphatidyl inositol (1-1000 μM) (PI) and 0.02 uCi [^3 H]-phosphatidyl inositol (PI) as substrate. The phospholipid components were dried under a gentle stream of nitrogen and resuspended in assay buffer. The substrate mix is then vortexed and sonicated (10 sec. with probe sonicator) to disperse the lipid and form micelles. After thermally preequilibrating the assay mixture in the absence of enzyme, the reaction was initiated by adding PLCγ1. Reactions containing 0.2 ml aliquots were terminated by addition of 1/4 volume 1N HCl, 5 mM EGTA and transferred to an ice bath. The quenched reactions are then filtered through a Q sepharose (Pharmacia) column. To prepare the Q sepharose column 1 ml of Q Sepharose slurry is added to a disposable plastic column. The resin is equilibrated by passing through 20 ml of 10 mM NH4 H2 PO4, pH 3.5. The quenched reaction, typically 200 μl, is applied to the column and 3 ml of 10 mM NH4 H2 PO4, pH 3.5 is added, the flow through from this step is collected in a scintillation vial, mixed with 10 ml of scintillation fluid and counted in a Beckman LS3801 scintillation counter.
PLC-β are obtained as described by S. G. Rhee et al., Meth. Enzym., 197:502-511 (1991). Specifically PLC-δ is purified from the cytosolic fraction of bovine brains, while PLC-β is mainly obtained from the particulate fraction. However, since the particulate and cytosolic forms of PLC-β are identical with respect to amino acid sequence, PLC-β-containing fractions pooled during the purification of the cytosolic PLC-δ are combined with the PLC-β fraction from the particulate fraction. A total of 36 bovine brains are used for the purification. Twelve brains are processed at one time.
Step 8: Ion-Exchange Chromatography of PLC-β on DEAE-Cellulose. Because of turbidity, the combined protein solution from Steps 2 and 3 cannot be chromatographed on a DEAE-cellulose column directly. Therefore, two stages of DEAE-cellulose chromatography, a batch procedure followed by a column step, are employed. In the batch step, all of the combined proteins are absorbed on 2 liters of DEAE-cellulose equilibrated with 20 mM Tris-HCl, pH 7.6, containing 5 mM EGTA and 0.1 mM DTT. The DEAE-cellulose slurry is stirred and then collected in a 4-liter sintered glass (coarse) filter funnel. The DEAE-cellulose is washed with the equilibration buffer until it is free of turbid lipid materials and unbound protein. For the column procedure, the washed DEAE-cellulose is removed from the filter funnel, mixed with the equilibration buffer, and poured onto a column already containing a 10 cm high bed of equilibrated DEAE-cellulose (final dimension, 8×45 cm). The column is eluted at a flow rate of 8 ml/min with an 8-liter linear gradient from 0 to 300 mM KCl buffer containing 50 mM Tris-HCl, pH 7.6, 1 mM EGTA, and 0.1 mM DTT. The activity peak is eluted at a KCl concentration of 110 mM. The peak fractions (600 ml) are pooled.
Step 9: Heparin-Agarose Chromatography of PLC-β. The pooled fraction from Step 8 (600 ml) is applied to a heparin-agarose column (5×25 cm) equilibrated with 20 mM HEPES, pH 7.0, 100 mM NaCl, 0.1 mM DTT, and 1 mM EGTA. The column is eluted with a linear gradient from 100 to 500 mM NaCl in 1.5 liters of equilibrium buffer. Peak fractions (310 ml) are pooled and concentrated on an Amicon filter to 27 ml.
Step 10: Reversed-Phase Chromatography of PLC-β on TSK Phenyl-5-PW. Solid KCl is added to the concentrated fractions from Step 9 to give a concentration of 3M, and the mixtures are centrifuged to remove denatured proteins. […]
Take `O=P(O)(O)C(O)c1cccc(Oc2ccccc2Cl)c1` (stereo not shown) [Example 5, 1-Hydroxy-1-(3-(2-chlorophenoxy)phenyl)methylphosphonic acid]: the IC50 worked out at 38 µM.
On to `COc1cccc(Oc2ccc(C(O)P(=O)(O)O)cc2)c1` (stereo not shown) [Example 11, 1-Hydroxy-1-(4-(3-methoxyphenoxy)phenyl)methylphosphonic acid], for which the IC50 was 11 µM.
Same read-out and setting: the figure for `O=P(O)(O)C(O)c1cccc(Oc2ccc(Cl)c(Cl)c2)c1` (stereo not shown) [Example 3, 1-Hydroxy-1-(3-(3,4-dichlorophenoxy)phenyl)methylphosphonic acid] is 110 µM; for `O=P(O)(O)C(O)c1ccc(Oc2cccc(Cl)c2)cc1` (stereo not shown) [Example 9, 1-Hydroxy-1-(4-(3-chlorophenoxy)phenyl)methylphosphonic acid] it is 9 µM.
Still for that read-out and setting: to `COc1ccc(Oc2cccc(C(O)P(=O)(O)O)c2)cc1` (stereo not shown) [Example 6, 1-Hydroxy-1-(3-(4-methoxyphenoxy)phenyl)methylphosphonic acid] belongs 717 µM.
Turning to `CCc1cccc(Oc2ccc(C(O)P(=O)(O)O)cc2)c1` (stereo not shown) [Example 10, 1-Hydroxy-1-(4-(3-ethylphenoxy)phenyl)methylphosphonic acid], the IC50 was 74 µM.
Regarding `O=P(O)(O)C(O)c1cccc(Oc2ccc(Cl)cc2)c1` (stereo not shown) [Example 4, 1-Hydroxy-1-(3-(4-chlorophenoxy)phenyl)methylphosphonic acid], the IC50 was 65 µM.
Same read-out and setting: to `O=P(O)(O)C(O)c1cccc(Oc2cccc(Cl)c2)c1` (stereo not shown) [Example 1, 1-Hydroxy-1-(3-(3-chlorophenoxy)phenyl)methylphosphonic acid] belongs 24 µM; to `O=P(O)(O)C(O)c1cccc(Oc2ccccc2)c1` (stereo not shown) [Example 2, 1-Hydroxy-1-(3-phenoxyphenyl)methylphosphonic acid], over 300 µM.
Still for that read-out and setting: to `O=P(O)(O)C(O)c1cccc(Oc2ccc(O)cc2)c1` (stereo not shown) [Example 8, 1-Hydroxy-1-(3-(4-hydroxyphenoxy)phenyl)methylphosphonic acid] belongs 7 µM; to `Cc1ccc(Oc2cccc(C(O)P(=O)(O)O)c2)cc1` (stereo not shown) [Example 7, 1-Hydroxy-1-(3-(4-methylphenoxy)phenyl)methylphosphonic acid], 31 µM; to `O=P(O)(O)C(O)c1ccc(Oc2ccccc2)cc1` (stereo not shown) [reference compound], over 300 µM.
